This note sets out measurements from patent US11672864B2, “Nanostructured gels capable of controlled release of encapsulated agents” (The Brigham and Women's Hospital, Inc., priority 2010, dated 2023).

The nature of series [1]: Gelation and stability of Abz-derived amphiphiles. In kind it is physicochemical. The method, then:
A variety of Abz-derived amphiphiles were synthesized (Scheme 3-1). […] In general, mixtures of polar organic solvents with water gave the best gelation results, with only two pure organogels forming (Abz-Alloc in glycerol, and Abz-Chol in 1,4-dioxane). […] The four amphiphiles had widely different solubility and gelation properties, with each amphiphile forming at least two gels.
Gelation. To a vial containing solid amphiphile was added the appropriate solvent. The vial was sealed and heated over a heat gun (˜110° C. max) until amphiphile fully dissolved. The vial was allowed to cool undisturbed at room temperature, during which time gel formed. For all characterization gels were allowed to form for at least 45 minutes.

Series [2] in a line: Gelation of Asc-Pal in solvents. It is filed as physicochemical. The method, then:
Typically, solvents (0.2 mL) were added to a glass scintillation vial with the gelator (0.5-5 wt/vol %) and sealed with a screw cap. The vial was heated to about 60-80° C. until the gelator was completely dissolved. The vial was placed on a stable surface and allowed to cool to room temperature. Typically after 15-45 min, the solution was transitioned into a viscous gel. Gelation was considered to have occurred when no gravitational flow was observed upon inversion of the glass vial, and resulted hydrogels are injectable. Asc-Pal formed gels in water, benzene, toluene, carbon tetrachloride, and acetonitrile; while a precipitate formed in dimethylformamide and dimethylsulfoxide. Asc-Pal was soluble in chloroform and methanol.

A short description of series [3]: Gelation of Asc-Pal without and with dexamethasone. In kind it is physicochemical. Conditions: 20% ethanol in water. The method, then: Self-assembly of the amphiphiles is a delicate process that could be affected by additional agents. To understand the affect of dexamethasone, gelation of Asc-Pal has been explored in 20% ethanol in water by varying concentration of Asc-Pal (1-5% wt/v) while keeping concentration of dexamethasone (2 mg) constant. Results in Table 6-2 reveal that presence of dexamethasone facilitates the self-assembly of Asc-Pal and strengthen the gelation.

Another series relates to fibroblasts (NIH3T3). Briefly: Cytotoxicity of CPT encapsulated SMS self-assembled fibers, NIH3T3. It is filed as cell-based. Conditions: Mus musculus; NIH3T3 fibroblasts in culture; unit inferred. From the text:
(§1) Cytotoxicity Studies of CPT Encapsulated SMS Self-Assembled Fibers. Prior to in vivo studies, evaluation of efficacy of drug delivery systems using appropriate cell lines is an essential step. Efficacy of CPT loaded SMS self-assembled fibers were investigated using glioma cell line, G55 and control cell line fibroblast, NIH3T3. […] We hypothesize that highly proliferative glioma G55 cells secretes high concentrations of enzymes that degrade the self-assembled fibers to release CPT efficiently, whereas free form of CPT degrades in the media due to its low half-life at physiological conditions. […] Encapsulation of Camptothecin and PARP-Inhibitor (AGO14699).

A further series relates to glioma cell line, G55. Briefly: Cytotoxicity of CPT encapsulated SMS self-assembled fibers, G55. Particulars: G55 cells in culture. It is filed as cell-based.
Source text: as §1

Series [4] is described as follows: Gelation ability and minimum gelation concentration of SMS. It is filed as physicochemical. Particulars: for Gelation ability: concentration around 5-9%. From the text: MGC values of SMS have varied from 3 to 8 wt/v %.

pIC50: −log10 of the molar value.

Turning to `C=CCOC(=O)Nc1cccc(C(N)=O)c1` [Abz-Alloc], the “Gelation in pure organic solvent” value in series [1] (glycerol) is “organogels”.

For the compound `CC(C)CCC[C@@H](C)[C@H]1CC[C@H]2[C@@H]3CC=C4CC(OC(=O)Nc5cccc(C(N)=O)c5)CC[C@]4(C)[C@H]3CC[C@]12C` (stereo partly shown) [Abz-Chol], the “Gelation in pure organic solvent” value in series [1] (1,4-dioxane) is “organogels”.

Turning to `NC(=O)c1cccc(NC(=O)Oc2ccc([N+](=O)[O-])cc2)c1` [Abz-PNP], the Stability of amphiphile result in series [1] was “decompose spontaneously”.

Take `CCCCCCCCCCCCCCCC(=O)OC[C@H](O)[C@H]1OC(=O)C(O)=C1O` [Asc-Pal, Ascorbyl palmitate]: the Gelation behaviour entry is given as “gels” in series [2] (acetonitrile); “gels” in series [2] (benzene); “gels” in series [2] (carbon tetrachloride); “soluble” in series [2] (chloroform); “precipitate” in series [2] (dimethylformamide); “precipitate” in series [2] (dimethylsulfoxide). Besides, the Gelation behaviour result in series [2] (methanol) is “soluble”; in series [2] (toluene), “gels”; in series [2] (water, gelator 0.5-5 wt/vol %), “gels”. The Gelation entry in series [3] (1% Asc-Pal, with dex (2 mg)) is “Weak”; in series [3] (1% Asc-Pal, without drug), “Not gel”; in series [3] (2% Asc-Pal, with dex (2 mg)), “Gel”; in series [3] (2% Asc-Pal, without drug) it was “weak”; in series [3] (3% Asc-Pal, with dex (2 mg)), “Gel”; in series [3] (3% Asc-Pal, without drug) it was “Gel”. The Gelation result in series [3] (4% Asc-Pal, with dex (2 mg)) is recorded as “Gel”; in series [3] (4% Asc-Pal, without drug), “Gel”; in series [3] (5% Asc-Pal, with dex (2 mg)), “Gel”; in series [3] (5% Asc-Pal, without drug) it was “Gel”.

`CC[C@@]1(O)C(=O)OCc2c1cc1n(c2=O)Cc2cc3ccccc3nc2-1` [Camptothecin]: the pIC50 in the series with fibroblasts (NIH3T3) was 8.41; with glioma cell line, G55, 7.52.

For `CCCCCCCCCCCCCCCCCC(=O)OC[C@@H](O)[C@H]1OC[C@H](O)[C@H]1O` [Sorbitane Monostearate, sorbitan monostearate], the Gelation ability result in series [4] (Acetone) is recorded as “Precipitate”; in series [4] (Acetonitrile (CH3CN)), “Precipitate”; in series [4] (Chloroform) it was “Soluble”; in series [4] (Dimethyl formamide (DMF)), “Soluble”; in series [4] (Dimethyl sulfoxide (DMSO)) it was “Gel”; in series [4] (Dioxane) it was “Soluble”. The Gelation ability entry in series [4] (Ethanol) is listed as “Soluble”; in series [4] (Ethyl acetate), “Emulsion”; in series [4] (Glycerol) it was “Gel”; in series [4] (Isobutanol) it was “Soluble”; in series [4] (Isopropanol) it was “Soluble”; in series [4] (Isopropyl palmitate), “Clear Gel”. Besides, the Gelation ability entry in series [4] (Methanol) is given as “Precipitate”; in series [4] (Mono-ethylene glycol) it was “Weak Gel”; in series [4] (Polyethylene glycol dimethyl acrylate), “Increased”; in series [4] (Tetrachloro methane), “Soluble”; in series [4] (Tetrahydrofuran (THF)) it was “Soluble”; in series [4] (Toluene), “Soluble”. For the same compound, the Gelation ability entry in series [4] (Water) was “Gel”; in series [4] (Xylene) it was “Soluble”; in series [4] (n-hexadecane), “Gel”; in series [4] (n-hexane) it was “Gel”. For the same compound, the “Minimum Gelation Concentration” value was determined as 3% Wt/V % in series [4] (Dimethyl sulfoxide (DMSO)); 5% Wt/V % in series [4] (Ethylene glycol); 3% Wt/V % in series [4] (Isopropyl palmitate); 3% Wt/V % in series [4] (Water); 8% Wt/V % in series [4] (glycerol); 2% Wt/V % in series [4] (n-hexadecane). In series [4] (n-hexane), the “Minimum Gelation Concentration” value was determined as 4% Wt/V %. In addition, the “Gelation in gelling solvent” value in series [4] (Dimethyl sulfoxide (DMSO) (Table 4-2)), in series [4] (Ethylene glycol (Table 4-2)), in series [4] (Glycerol (Table 4-2)), in series [4] (Isopropyl palmitate (Table 4-2)), in series [4] (Water (Table 4-2)) and in series [4] (n-hexadecane (Table 4-2)) was “Gel” in each case. Also, the “Gelation in gelling solvent” value in series [4] (n-hexane (Table 4-2)) was “Gel”. In series [4] (across different solvents), the “Minimum gelation concentrations (MGC)” value is given as 3 to 8 wt/v %.

A word on the pIC50: it is the negative decadic logarithm of the IC50, by convention in mol/L.
